For experiment [1], the system named is RSV-A2-GFP virus. In words: microbe, parasite or virus in culture. The experiment is classed as cell-based, Human Respiratory Syncytial Virus. Summed up:
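IC50 (GFP-expressing cell counts by Acumen imaging) and CC50 (same-well CellTiter-Glo) were obtained by 4-parameter logistic fitting. Compounds were tested in 10-point 3-fold series for 96 h at 37° C, 5% CO2. Thawed Calu-1 ARF cells were infected at MOI 1.2 with GFP-reporter RSV-A2 in 2% FBS DMEM.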

The subject of experiment [2] is hMPV-GFP virus. As to the kind of experiment: microbe, parasite or virus in culture. Type of experiment: cell-based, human metapneumovirus. Summed up: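 Antiviral IC50 was derived from imaging counts of GFP-expressing cells, with CC50 from a same-well CellTiter-Glo read, both by 4-parameter logistic fitting. VERO cells plus hMPV-GFP (MOI 1.25) were exposed 48 h at 37 °C to 10-point 3-fold compound dilutions (typical final 40,300–2 nM).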

Setting [3] is: human respiratory syncytial virus, Calu-1, 96 h, read-out: RSV EC50, Calu-1 cells infected with RSV-A2-GFP, 96 hrs, GFP-expressing cells counted.
Setting [4] is: human metapneumovirus, Vero, 48 h, read-out: hMPV EC50, VERO cells infected with hMPV-GFP, 48 hrs, GFP-expressing cells counted.
The mark [5] stands for this setting: Calu-1 cells infected with RSV-A2-GFP, 96 hrs, GFP-expressing cells counted, read-out: RSV EC50.
[6] abbreviates: VERO cells infected with hMPV-GFP, 48 hrs, GFP-expressing cells counted, read-out: hMPV EC50.

Read-outs that look alike come from different tables or passages of the source.

The EC50 is the concentration needed to bring the measured effect to its halfway point. For the compound `Cc1nc(-c2ncccn2)sc1C(=O)N1C[C@@H]2[C@H](C1)[C@H]2Oc1cc(C(C)(C)N)cc(Cc2ccc(F)cc2)n1` [Example 126, ((1R,5S,6s)-6-((4-(2-aminopropan-2-yl)-6-(4-fluorobenzyl)pyridin-2-yl)oxy)-3-azabicyclo[3.1.0]hexan-3-yl)(4-methyl-2-(pyrimidin-2-yl)thiazol-5-yl)methanone], the 50% effective concentration (EC50) in experiment [1] (setting [3]) is under 10 nM; in experiment [2] (setting [4]) it was over 100 nM.

On to `Cc1nn(-c2ncccn2)cc1C(=O)N1C[C@@H]2[C@H](C1)[C@H]2Oc1cc(C(C)(C)N)cc(N2CCC(C)(C)CC2C)n1` (stereo partly drawn) [Example 127A, ent-((1R,5S,6s)-6-((4-(2-aminopropan-2-yl)-6-(2,4,4-trimethylpiperidin-1-yl)pyridin-2-yl)oxy)-3-azabicyclo[3.1.0]hexan-3-yl)(3-methyl-1-(pyrimidin-2-yl)-1H-pyrazol-4-yl)methanone], for which the results for the EC50 in experiment [1] (setting [5]) and in experiment [2] (setting [6]) were under 10 nM and over 100 nM, respectively.

Consider `Cc1nn(-c2ncccn2)cc1C(=O)N1C[C@@H]2[C@H](C1)[C@H]2Oc1cc(C(C)(C)N)cc(NC(C)C2CCCC2)n1` (stereo partly drawn) [Example 128A, ent-((1R,5S,6s)-6-((4-(2-aminopropan-2-yl)-6-((1-cyclopentylethyl)amino)pyridin-2-yl)oxy)-3-azabicyclo[3.1.0]hexan-3-yl)(3-methyl-1-(pyrimidin-2-yl)-1H-pyrazol-4-yl)methanone], for which the EC50 in experiment [1] (setting [5]) is under 10 nM; in experiment [2] (setting [6]) it was over 100 nM.

In the case of `Cc1nn(-c2ncccn2)cc1C(=O)N1C[C@@H]2[C@H](C1)[C@H]2Oc1cc(C(C)(C)N)cc(N2CCC(C(F)(F)F)CC2C)n1` (stereo partly drawn) [Example 129A, ent-((1R,5S,6s)-6-((4-(2-aminopropan-2-yl)-6-(2-methyl-4-(trifluoromethyl)piperidin-1-yl)pyridin-2-yl)oxy)-3-azabicyclo[3.1.0]hexan-3-yl)(3-methyl-1-(pyrimidin-2-yl)-1H-pyrazol-4-yl)methanone], the EC50 in experiment [1] (setting [5]) is under 10 nM; in experiment [2] (setting [6]) it was over 100 nM.

As to `CC(C)(N)c1cc(O[C@H]2[C@@H]3CN(C(=O)c4cn(-c5ncccn5)nc4Cn4nccn4)C[C@@H]32)nc(-c2ccc(F)cc2)c1` [Example 130, (3-((2H-1,2,3-triazol-2-yl)methyl)-1-(pyrimidin-2-yl)-1H-pyrazol-4-yl)((1R,5S,6s)-6-((4-(2-aminopropan-2-yl)-6-(4-fluorophenyl)pyridin-2-yl)oxy)-3-azabicyclo[3.1.0]hexan-3-yl)methanone], the EC50 is under 10 nM in experiment [1] (setting [3]) and over 100 nM in experiment [2] (setting [4]).

Turning to `CC(C)(N)c1cc(O[C@H]2[C@@H]3CN(C(=O)c4cn(-c5ncccn5)nc4CCF)C[C@@H]32)nc(-c2ccc(F)cc2)c1` [Example 131, ((1R,5S,6s)-6-((4-(2-aminopropan-2-yl)-6-(4-fluorophenyl)pyridin-2-yl)oxy)-3-azabicyclo[3.1.0]hexan-3-yl)(3-(2-fluoroethyl)-1-(pyrimidin-2-yl)-1H-pyrazol-4-yl)methanone], the EC50 was under 10 nM in experiment [1] (setting [3]) and over 100 nM in experiment [2] (setting [4]).

For `CC(C)(N)c1cc(O[C@H]2[C@@H]3CN(C(=O)c4cn(-c5ncccn5)nc4CC(F)F)C[C@@H]32)nc(-c2ccc(F)cc2)c1` [Example 132, ((1R,5S,6s)-6-((4-(2-aminopropan-2-yl)-6-(4-fluorophenyl)pyridin-2-yl)oxy)-3-azabicyclo[3.1.0]hexan-3-yl)(3-(2,2-difluoroethyl)-1-(pyrimidin-2-yl)-1H-pyrazol-4-yl)methanone], the 50% effective concentration (EC50) in experiment [1] (setting [3]) was under 10 nM; in experiment [2] (setting [4]), over 100 nM.

Values taken from patent US12643882B2, “Inhibitors of human respiratory syncytial virus and metapneumovirus” (priority 2022, dated 2026).
